Where “and” joins values, the source holds several entries; their conditions need not be identical. Equal values may be shown once. Where a name gives a salt, the structure may show the parent alone. Read-outs that look alike come from different tables or passages of the source.
What was measured:
[1] = Aqueous solubility; assay type: physicochemical
Description: Solubility was measured by stirring […] in water (10 mL) of amorphous L-708 at room temperature. At 48 hrs. 1 mL of the suspension was drawn and centrifuged. The supernatant was diluted and content of amorphous L-708 was measured by both U.V. spectrophotometry and by HPLC. This gave a concentration of 55 mg/mL.

[2] = Bioavailability; assay type: in vivo
[3] = Stability of the solid on storage, followed by water solubility; assay type: physicochemical; conditions: solid stored three months at 30°C and 60°C at ambient humidity and at 30°C/79% relative humidity
Description: (§1) No change in water solubility has been observed even when stored for three months at 30°C and 60°C at ambient humidity and at 30°C/79% relative humidity.

[4] = Stability of saturated aqueous solutions against precipitation of the crystalline form; assay type: physicochemical; conditions: do not readily precipitate the crystalline form even when seeded with the crystalline allotrope
[5] = Stability to chemical decomposition; assay type: physicochemical; conditions: in the solid form and in aqueous solution
Description: as §1

Row | solubility ([1]; water, crystalline sodium salt, read-out: aqueous solubility) [mg/mL] | oral bioavailability ([2]; oral) | solubility ([1]; de-ionized water, in de-ionized water at 25°C, read-out: solubility) [mg/mL] | solubility at 48 h ([1]; water, 100 mg/mL stirred in water (10 mL) at room temperature, 48 hrs, U.V. spectrophotometry and HPLC, read-out: Solubility (concentration in supernatant)) [mg/mL] | solubility ([1]; water, not tested higher, read-out: Solubility in water) | change in water solubility on storage [3] | stability of saturated aqueous solutions [4] | stability to chemical decomposition [5] | SMILES | bioavailability ([2]; compared with L-708 Na⁺ salt)
1 | 0.005 to 0.03 | low oral bioavailability | – | – | – | – | – | – | CC(C)(C)Sc1c(CC(C)(C)C(=O)O)n(Cc2ccc(Cl)cc2)c2ccc(OCc3ccc4ccccc4n3)cc12 [L-708 Na⁺ salt, Crystalline 3-[N-(p-chlorobenzyl)-3-(t-butylthio)-5-(quinolin-2-ylmethoxy)indol-2-yl]-2.2-dimethylpropanoic acid, sodium salt, reference compound] | –
2 | – | – | 55 | 55 | ≥ 3000 µg/mL and ≥ 5000 µM | No change | highly stable | highly stable to chemical decomposition | CC(C)(C)Sc1c(CC(C)(C)C(=O)O)n(Cc2ccc(Cl)cc2)c2ccc(OCc3ccc4ccccc4n3)cc12 [amorphous L-708, Amorphous 3-[N-(p-chlorobenzyl)-3-(t-butylthio)-5-(quinolin-2-ylmethoxy)indol-2-yl]-2,2-dimethylpropanoic acid, sodium salt] | much more bioavailable than L-708 Na⁺ salt

Source: patent EP0542355A1, “Amorphous (Quinolin-2-ylmethoxy)indoles as leukotriene antagonists” (MERCK FROSST CANADA INC., priority 1991, dated 1993)
